# Test results taken from US9309187B2, “EP2 receptor agonists” (TAKEDA GMBH, priority 2012, dated 2016).
# Tests used:
# [1] = target: T1, human EP2 receptor (Homo sapiens, UniProt P43116); assay: EP2 binding assay (PGE2 displacement); conditions: recombinant human EP2 membranes, 1 nanoM [3H]-PGE2; reported as range bins; read-out: EP2 binding (PGE2 displacement) pIC50 (-log IC50) (converted)
# T1 construct: purchased Millipore
# Experimental: Method for Measuring Inhibition of PGE2 Binding to the Human Prostanoid Receptor EP2:
# Human EP2 receptor equilibrium competition binding assays were performed according to Abramovitz et al. (M. Abramovitz et al. 2000, Biochimica et Biophysica Acta 1483: 285-293) in a final incubation volume of 100 microL in 50 milliM Bis-Tris, pH6.0 in 96-well plates. Radiolabelled Prostaglandin E2 (PGE2) (1 nanoM [^3H]-PGE2 purchased from Perkin Elmer) was added to the assay as competitive ligand. Test compounds stored as Dimethylsulfoxide (DMSO) stock solutions were added to the assay in serial dilutions in assay buffer while keeping the final DMSO concentration equal in each sample. The reaction was initiated by addition of membrane proteins harbouring human EP2 receptor (ChemiSCREEN™ membrane preparation recombinant human EP2 prostanoid receptor that was purchased by Millipore). Total binding was determined in the absence of test compound or PGE2 and non-specific binding was determined in the presence of 1 microM PGE2. Incubations were conducted for 60 minutes at room temperature until equilibrium was reached and terminated by filtration through GF/B filter (Perkin Elmer) prewetted with 0.3% PEI solution. Unbound radiolabelled PGE2 was removed by 8 wash cycles with the same buffer under ice-cold conditions and the filters containing the residual radioactivity were dried for 60 minutes at 60° C. In order to measure the filter bound radioactivity, 40 microL microscint (scintillation liquid) was added to each filter and the chemiluminescence was determined by TopCount-NTX™. The specific binding was calculated by subtracting non-specific binding from each sample. Percent inhibition by test compounds was calculated based on specific binding without test compound. Each sample was measured in triplicates per experiment and for the calculation of the pIC50 at least 2 independent experiments were performed. Determination of half maximal inhibiting concentration (IC50) was performed with GraphPad Prism Software.
# (§1) The numbers of the compounds correspond to the examples numbers.
# EP2 Binding Assay (PGE2 Displacement): pIC50 Values
# [2] = target: T2, human prostanoid receptor EP2 (Homo sapiens, UniProt P43116); assay: EP2 cAMP release assay in CHOp6CreLuc-huEP2 cells (CRE-luciferase readout); type: cell-based; conditions: CHOp6CreLuc-huEP2 cells, 4 hours at 37° C.; reported as range bins; read-out: EP2 cAMP release assay pEC50 (-log EC50) (converted)
# T2 construct: expressed in transfected cells; host or cells: CHO-K1 (CHOp6CreLuc-huEP2)
# T2 sequence (P43116 whole entry): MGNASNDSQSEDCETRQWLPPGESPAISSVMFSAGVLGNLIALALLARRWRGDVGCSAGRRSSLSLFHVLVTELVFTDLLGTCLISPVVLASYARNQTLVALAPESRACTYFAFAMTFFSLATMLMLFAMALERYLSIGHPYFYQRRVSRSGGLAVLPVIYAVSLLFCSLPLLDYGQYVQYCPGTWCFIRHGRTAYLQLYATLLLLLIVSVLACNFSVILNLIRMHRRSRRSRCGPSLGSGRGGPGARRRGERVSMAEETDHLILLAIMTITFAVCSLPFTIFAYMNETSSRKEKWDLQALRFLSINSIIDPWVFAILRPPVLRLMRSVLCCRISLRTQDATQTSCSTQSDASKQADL
# Experimental: Method for Measuring cAMP Release in Human EP2 Stably Transfectant Cells:
# The potency and efficacy of EP2 agonists have been determined via measuring cAMP release in stably transfectant CHO-K1 cell expressing the human prostanoid receptor EP2 and luciferase enzyme regulated via a 6 times CRE (cAMP response element) containing transcriptional promoter. CHOp6CreLuc-huEP2 cells were seeded into 384-well plate (1000 cells per well) in DMEM/F12 (Dulbecco's Modified Eagle Medium/Nutrient Mixture F12) cell culture medium containing 2% FCS (Fetal Calf Serum) and 500 μg/ml G418 24 hours prior to the experiment. Test compound was added as serial dilutions while keeping the final DMSO concentration constant in each well. […] Cells were incubated together with test compound or butaprost for 4 hours at 37° C. The cAMP release was determined indirectly via luciferase activity that directly correlated to the amount of luciferase enzyme expressed in response to cAMP regulated promoter activity. The luciferase activity was determined by addition of luciferin containing buffer and subsequent quantification of resulting luminescence. Each sample was measured in quadruplicates per experiment and half-maximal effective concentration (EC50) and relative maximal effect compared to butaprost was determined from 3 independent experiments with GraphPad Prism Software. A compound that achieved over 80% of the maximal effect of butaprost was considered as full agonist.
# For the following compounds the potency was determined in the cAMP release assay applying human EP2 transfectant CHOp6CreLuc-huEP2 cells. […] The numbers of the compounds correspond to the examples numbers.
# EP2 cAMP Release Assay: pEC50
# [3] = system: normal human lung fibroblasts (NHLF); assay: Inhibition of the proliferation of normal human lung fibroblasts (NHLF); type: cell-based; conditions: Fibroblast, IL1β (50 pg/mL) and bFGF (10 ng/mL) for 36 h, methyl-3H thymidine incorporation, read-out: inhibition of NHLF proliferation pIC50 (-log IC50) (converted)
# Experimental: Method for Determination of the Inhibition of the Proliferation of Normal Human Lung Fibroblasts (NHLF)
# 16,500 NHLF-cells were seeded in each well of 24-well cell culture plates and were subsequently cultivated for 3.5 days. Thereafter cell culture medium was replaced by non-serum containing medium and cells were starved for 24 h. Subsequently a serial dilution of test compound was added and cells were stimulated with IL1β (Interleukine 1 beta) (50 pg/mL) and bFGF (basic Fibroblast Growth Factor) (10 ng/mL) for 36 h. For DNA-synthesis (Desoxyribonucleic Acid-synthesis) measurement methyl-^3H thymidine was added to the cells for the last 7 h of the 36 h incubation period. Thereafter the radioactive labeled cells were processed for measurement of the incorporated radioactivity as a marker for DNA-synthesis and thus proliferation. For that purpose the cell culture supernatants were removed, adherent cells washed once with ice-cold PBS and fixed in ice-cold 10% (w/v) trichloroacetic acid (TCA) for 30 min. Thereafter TCA was discarded and the DNA of the fixed cells hydrolyzed by administering 0.2 N NaOH. The radioactivity containing NaOH was then transferred into scintillation vials, scintillation liquid added and radioactivity was counted (L56500, Beckman Counter). Test compounds were dissolved in DMSO to a stock concentration of 10 mM. After administration of the compound to the cell cultures the final DMSO concentration was 0.1%. Inhibition of proliferation by the various concentrations of test compound was calculated related to 0.1% DMSO-treated control cells.
# as §1
# T1 sequence (P43116 whole entry): as above
IC50 [1] [nM],EC50 [2] [nM],SMILES,IC50 [3] [nM]
1.26 to 10,0.00631 to 0.1,"O=C(O)/C=C/c1ccc(F)c(NC(=O)c2cc(-c3ccccc3)cc3ccccc23)c1 [Example 2, (2E)-3-(4-fluoro-3-{[(3-phenylnaphthalen-1-yl)carbonyl]amino}phenyl)prop-2-enoic acid]",1.58 to 15.8
1.26 to 10,0.00631 to 0.1,"O=C(O)/C=C/c1ccc(Cl)c(NC(=O)c2cc(-c3ccccc3)cc3ccccc23)c1 [Example 3, (2E)-3-(4-chloro-3-{[(3-phenylnaphthalen-1-yl)carbonyl]amino}phenyl)prop-2-enoic acid]",
1.26 to 10,0.00631 to 0.1,"O=C(O)/C=C/c1cccc(NC(=O)c2cc(-c3ccccc3)cc3ccccc23)c1 [Example 1, (2E)-3-(3-{[(3-phenylnaphthalen-1-yl)carbonyl]amino}phenyl)prop-2-enoic acid]",1.58 to 15.8
1.26 to 10,0.00631 to 0.1,"O=C(O)/C=C/c1ccc(F)c(NC(=O)c2cc(-c3cccc(F)c3)cc3ccccc23)c1 [Example 10, (2E)-3-{3-[({3-[3-fluorophenyl]naphthalen-1-yl}carbonyl)amino]-4fluorophenyl}prop-2-enoic acid]",1.58 to 15.8
1.26 to 10,0.00631 to 0.1,"O=C(O)/C=C/c1ccc(F)c(NC(=O)c2cc(-c3ccccc3F)cc3ccccc23)c1 [Example 9, (2E)-3-{3-[({3-[2-fluorophenyl]naphthalen-1-yl}carbonyl)amino]-4fluorophenyl}prop-2-enoic acid]",1.58 to 15.8
